Laboratory results as given in patent publication US8168651B2, “Protein kinase modulators” (Cylene Pharmaceuticals, Inc., priority 2008, dated 2012).
pIC50: −log10 of the molar value. Where two headings read alike, the source gives them in different places.

Experiments:
[1] = system: MV-4-11; experiment: Cell proliferation modulatory activity, MV-4-11; type: cell-based; conditions: Homo sapiens, MV4-11
[2] = system: K-562; experiment: Cell proliferation modulatory activity, K-562; type: cell-based; conditions: Homo sapiens, K562
[3] = target: recombinant human PIM1 (Homo sapiens (Human), UniProt P11309); experiment: PIM-1 kinase activity in cell-free in vitro assay; type: biochemical; conditions: for inhibition at 0.5 µM: 500 nM compound, read-out: PIM-1: % inh 500 nM
Chain of recombinant human PIM1 (P11309 whole entry): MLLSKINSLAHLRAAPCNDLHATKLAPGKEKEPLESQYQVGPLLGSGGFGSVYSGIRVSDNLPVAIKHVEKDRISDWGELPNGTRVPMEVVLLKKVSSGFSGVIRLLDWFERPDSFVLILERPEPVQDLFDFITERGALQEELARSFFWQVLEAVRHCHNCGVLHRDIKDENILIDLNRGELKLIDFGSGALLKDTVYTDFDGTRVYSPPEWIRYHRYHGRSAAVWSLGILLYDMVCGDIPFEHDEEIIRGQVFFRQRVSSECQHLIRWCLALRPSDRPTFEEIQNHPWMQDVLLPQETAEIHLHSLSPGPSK

[4] = target: recombinant human CK2 (Homo sapiens (Human), UniProt P68400); experiment: CK2 assay (cell-free, 33P-ATP filter plate); type: biochemical; conditions: cell-free assay; for pIC50: 15 um ATP, read-out: CK2 (15 um ATP) IC50; for inhibition at 0.5 µM: 500 nM compound, read-out: CK2: % inh 500 nM
Chain of recombinant human CK2 (P68400 whole entry): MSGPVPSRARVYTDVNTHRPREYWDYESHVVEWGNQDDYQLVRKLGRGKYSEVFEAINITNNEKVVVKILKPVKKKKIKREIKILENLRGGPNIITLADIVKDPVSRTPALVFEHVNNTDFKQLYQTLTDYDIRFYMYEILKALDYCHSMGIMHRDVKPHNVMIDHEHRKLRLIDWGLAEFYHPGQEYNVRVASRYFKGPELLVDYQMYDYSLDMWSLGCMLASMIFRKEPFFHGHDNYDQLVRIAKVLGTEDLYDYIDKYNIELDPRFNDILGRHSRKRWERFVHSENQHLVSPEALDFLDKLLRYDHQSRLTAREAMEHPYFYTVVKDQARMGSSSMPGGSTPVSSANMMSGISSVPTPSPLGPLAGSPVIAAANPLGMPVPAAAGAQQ
Chain of recombinant human CK2 (P67870 whole entry partner): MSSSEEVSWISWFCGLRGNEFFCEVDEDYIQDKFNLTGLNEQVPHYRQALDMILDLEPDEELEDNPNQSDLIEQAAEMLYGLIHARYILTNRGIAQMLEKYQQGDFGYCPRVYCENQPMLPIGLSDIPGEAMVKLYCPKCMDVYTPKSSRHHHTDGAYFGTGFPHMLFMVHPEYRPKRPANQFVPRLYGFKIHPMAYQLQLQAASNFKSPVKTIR

[5] = system: Jurkat; experiment: Cell proliferation modulatory activity, Jurkat; type: cell-based; conditions: Homo sapiens
[6] = system: HCT-116 human colorectal carcinoma cells; experiment: Cell-proliferation assay using Alamar Blue dye; type: cell-based; conditions: Homo sapiens;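 also: cells exposed to compound for about 4 days, then Alamar Blue added and dye fluorescence read after about 4 h, compared with medium-only control wells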
[7] = system: K-562; experiment: Cell proliferation modulatory activity, K-562; type: cell-based; conditions: Homo sapiens, K562; K-562 cells; read-out: K-562 (uM), cell proliferation modulatory activity
[8] = system: MV-4-11; experiment: Cell proliferation modulatory activity, MV-4-11; type: cell-based; conditions: Homo sapiens, MV4-11; MV-4-11 cells; read-out: MV-4-11 (uM), cell proliferation modulatory activity
[9] = target: PIM2 (Homo sapiens (Human), UniProt Q9P1W9); experiment: PIM2 IC50; type: biochemical; conditions: Table 45
Chain of PIM2 (Q9P1W9 whole entry): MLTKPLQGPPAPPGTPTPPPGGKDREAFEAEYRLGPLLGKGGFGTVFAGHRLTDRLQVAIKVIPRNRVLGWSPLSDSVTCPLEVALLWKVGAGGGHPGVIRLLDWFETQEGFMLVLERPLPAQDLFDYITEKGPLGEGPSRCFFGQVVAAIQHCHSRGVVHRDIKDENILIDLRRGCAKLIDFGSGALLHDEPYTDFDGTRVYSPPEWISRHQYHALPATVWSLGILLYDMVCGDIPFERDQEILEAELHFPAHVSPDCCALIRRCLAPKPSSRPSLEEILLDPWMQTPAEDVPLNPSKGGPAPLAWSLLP

[10] = HCT-116, HCT-116, second HCT-116 column (c8), read-out: HCT-116 (uM), cell proliferation modulatory activity
[11] = HCT-116, read-out: HCT-116 (uM), cell proliferation modulatory activity, HCT-116, second HCT-116 column (c8)
[12] = HCT-116, second of two HCT-116 columns (c8), read-out: HCT-116 (uM), cell proliferation modulatory activity

Structure (SMILES)	inhibition at 0.5 µM ([3]; cell-free assay) [%]	pIC50 [4]	IC50 [5] [µM]	IC50 [6, 10] [µM]	other results
COCCNc1ncc2c(n1)c(NC1CC1)nc1cc(C(=O)O)ccc12	17.2	7.89	13.7	> 10	
CC(C)Nc1ncc2c(n1)c(NC1CC1)nc1cc(C(=O)O)ccc12	73.3		2.14		IC50 [6, 11]: > 10 µM; pIC50 ([3]; cell-free assay): < 5.96
O=C(O)c1ccc2c(c1)nc(NC1CC1)c1nc(NCCCO)ncc12	-15.9	6.79	> 50	> 10	
CCOCCNc1ncc2c(n1)c(NC1CC1)nc1cc(C(=O)O)ccc12	-8.19	7.24	18.1	> 10	
CC(Nc1ncc2c(n1)c(NC1CC1)nc1cc(C(=O)O)ccc12)c1ccccc1 (stereo not shown)	-32.7	6.64	28.7	> 10	
CC(C)OCCCNc1ncc2c(n1)c(NC1CC1)nc1cc(C(=O)O)ccc12	-40.2	7.13	16.6	> 10	
O=C(O)c1ccc2c(c1)nc(NC1CC1)c1nc(NCC3CCCO3)ncc12 (stereo not shown)	10.5	7.38	21.5	> 10	
CCOCCCNc1ncc2c(n1)c(NC1CC1)nc1cc(C(=O)O)ccc12	9.55	7.35	2.02	3.64	
CC(C)OCCNc1ncc2c(n1)c(NC1CC1)nc1cc(C(=O)O)ccc12	-2.46	7.19	7.37	> 10	pIC50 ([3]; cell-free assay): < 5.96
O=C(O)c1ccc2c(c1)nc(NC1CC1)c1nc(NCC3CC3)ncc12	15.7	8.10	4.41	> 10	
CC(C)C(CO)Nc1ncc2c(n1)c(NC1CC1)nc1cc(C(=O)O)ccc12 (stereo not shown)	-8.31	6.78	44.7	> 10	
NC(=O)c1ccc2c(c1)nc(NC1CC1)c1nc(NC3CC3)ncc12	-10.8	6.87	0.504	1.33	
CNC(=O)c1ccc2c(c1)nc(NC1CC1)c1nc(NC3CC3)ncc12	-16.2	< 6.12	0.618	1.08	
O=C(NCc1ccccn1)c1ccc2c(c1)nc(NC1CC1)c1nc(NC3CC3)ncc12	-17.1	< 6.12	1.95	3.07	
COCCNC(=O)c1ccc2c(c1)nc(NC1CC1)c1nc(NC3CC3)ncc12	-16.1	< 6.12	1.64	3.87	
O=C(Nc1ccccc1)c1ccc2c(c1)nc(NC1CC1)c1nc(NC3CC3)ncc12	-5.17	< 6.12	0.989	3.16	
O=C(NCCN1CCOCC1)c1ccc2c(c1)nc(NC1CC1)c1nc(NC3CC3)ncc12	2.65	< 6.12	1.43	> 10	
NCCNC(=O)c1ccc2c(c1)nc(NC1CC1)c1nc(NC3CC3)ncc12	3.79	< 6.12	2.36	> 10	
CN(C)C(=O)c1ccc2c(c1)nc(NC1CC1)c1nc(NC3CC3)ncc12	1.62	< 6.12	0.583	1.12	
COC(=O)c1ccc2c(c1)nc(NC1CC1)c1nc(C#N)ncc12	2.81			> 10	IC50 [2]: 1.34 µM

Structure (SMILES)	inhibition at 0.5 µM ([3]; cell-free assay) [%]	pIC50 [4]	IC50 [5] [µM]	IC50 [6, 10] [µM]	other results
c1cc(-c2nc[nH]n2)c2nc(NCc3ccncc3)c3ccncc3c2c1					pIC50 [9]: > 6.00; pIC50 ([3]; Table 45): > 6.30
c1ccc(CNc2nc3c(-c4nc[nH]n4)cccc3c3cnccc23)nc1					pIC50 [9]: > 6.30; pIC50 ([3]; Table 45): > 6.30
CN1CCC(CNc2nc3c(-c4nnc[nH]4)cccc3c3cnccc23)CC1					pIC50 [9]: < 5.96; pIC50 ([3]; Table 45): > 6.30
c1cncc(CNc2nc3c(-c4nc[nH]n4)cccc3c3cnccc23)c1					pIC50 [9]: < 5.96; pIC50 ([3]; Table 45): > 6.30
CN1CCN(c2nc3c(-c4nc[nH]n4)cccc3c3cnccc23)CC1					pIC50 [9]: < 5.96; pIC50 ([3]; Table 45): > 6.00
NC(=O)c1cc(F)cc2c1nc(Nc1cccc(Cl)c1)c1ccncc12					pIC50 [9]: < 5.96; pIC50 ([3]; Table 45): > 6.00
c1cc(-c2nc[nH]n2)c2nc(NCCN3CCOCC3)c3ccncc3c2c1					pIC50 [9]: < 5.96; pIC50 ([3]; Table 45): > 5.30
CN(C)CCNc1nc2c(-c3nc[nH]n3)cccc2c2cnccc12					pIC50 [9]: < 5.96; pIC50 ([3]; Table 45): > 5.30
CCN1CCCC1CNc1nc2c(-c3nc[nH]n3)cccc2c2cnccc12 (stereo not shown)					pIC50 [9]: < 5.96; pIC50 ([3]; Table 45): < 5.96
O=C(O)c1cc(F)cc2c1nc(Nc1cccc(Cl)c1)c1ccncc12					pIC50 [9]: < 5.96; pIC50 ([3]; Table 45): < 5.96
O=C(O)c1cc(F)cc2c1nc(Nc1cccc(Cl)c1)c1cnccc12					pIC50 [9]: < 5.96; pIC50 ([3]; Table 45): < 5.96
O=C(O)c1ccc2c(c1)nc(NC1CC1)c1nc(NC3CC3)ncc12 [drawing 1616]	27.1		3.45		IC50 [6, 11]: > 10 µM
O=C(O)c1ccc2c(c1)nc(NC1CC1)c1nc(NCc3ccccc3)ncc12 [drawing 1617]	34.5		8.82		IC50 [6, 11]: > 10 µM
O=C(O)c1ccc2c(c1)nc(N1CCOCC1)c1nc(NC3CC3)ncc12 [drawing 1627]	26		3.67	> 10	
COC(=O)c1ccc2c(c1)nc(NC1CC1)c1nc(SC)ncc12 [drawing 1641]	17.1		> 50	> 10	
CN(C)CCNc1nc2cc(C(=O)O)ccc2c2cnc(NC3CC3)nc12 [drawing 1642]	-37.5		34	> 10	
CCCNc1ncc2c(n1)c(NC1CC1)nc1cc(C(=O)O)ccc12 [drawing 1645]	13.2		9.37		IC50 [6, 11]: > 10 µM
Fc1cc(-c2nnc[nH]2)c2nc(Nc3cccc(Cl)c3)c3ccncc3c2c1 [drawing 2259]					pIC50 [9]: > 6.00; pIC50 ([3]; Table 45): > 6.00
Fc1cc(-c2nnc[nH]2)c2nc(Nc3cccc(Cl)c3)c3ccncc3c2c1 [drawing 2269]					pIC50 [9]: < 5.96; pIC50 ([3]; Table 45): < 5.96

Continued, in another order:

inhibition at 0.5 µM ([3]; cell-free assay) [%]	pIC50 [4]	IC50 [5] [µM]	IC50 [6, 10] [µM]	Structure (SMILES)	other results
45.6				O=C(O)c1ccc2c(c1)nc(Nc1ccccc1)c1nc(NCCO)ncc12	IC50 [1]: > 10 µM; IC50 [2]: > 10 µM
29				C#Cc1cccc(Nc2nc3cc(C(=O)O)ccc3c3cnc(NC4CCNCC4)nc23)c1	IC50 [1]: 0.237 µM; IC50 [2]: > 10 µM
44.2		2.39		O=C(O)c1ccc2c(c1)nc(NC1CC1)c1nc(Nc3cccc(C(F)(F)F)c3)ncc12	IC50 [6, 11]: > 10 µM
	7.64	> 50	> 10	O=C(O)c1ccc2c(c1)nc(NC1CC1)c1nc(NCc3cccnc3)ncc12	
23.2	7.02	2.17	> 10	O=C(O)c1ccc2c(c1)nc(NC1CC1)c1nc(Nc3cccc(Cl)c3)ncc12	
71.7	7.77	2.38	> 10	O=C(O)c1ccc2c(c1)nc(NC1CC1)c1nc(Nc3cccc(F)c3F)ncc12	
15.6			> 10	O=C(O)c1ccc2c(c1)nc(NCc1cccc3ccccc13)c1ccncc12	IC50 [2]: > 10 µM
33.7			> 10	Cc1cccc(N2CCN(c3nc4cc(C(=O)O)ccc4c4cnccc34)CC2)c1	IC50 [2]: > 10 µM
22.9				Fc1cc(Cl)cc(Nc2nc3cc(-c4nnn[nH]4)ccc3c3ccsc23)c1	IC50 [7]: > 10 µM; inhibition at 0.5 µM [4]: 45.4%; IC50 [6, 12]: > 10 µM
10.8				FC(F)(F)c1cccc(Nc2nc3cc(-c4nnn[nH]4)ccc3c3ccsc23)c1	IC50 [7]: > 10 µM; inhibition at 0.5 µM [4]: 17.4%; IC50 [8]: 1.1 µM; IC50 [6, 12]: > 10 µM
29.1				Fc1ccc(Nc2nc3cc(-c4nnn[nH]4)ccc3c3ccsc23)cc1Cl	IC50 [7]: > 10 µM; inhibition at 0.5 µM [4]: 37.6%; IC50 [8]: 0.721 µM; IC50 [6, 12]: > 10 µM
40.4				Clc1ccc(Nc2nc3cc(-c4nnn[nH]4)ccc3c3ccsc23)cc1	IC50 [7]: > 10 µM; inhibition at 0.5 µM [4]: 23.9%; IC50 [8]: > 10 µM; IC50 [6, 12]: > 10 µM
54.7				Fc1ccc(Nc2nc3cc(-c4nnn[nH]4)ccc3c3ccsc23)cc1	IC50 [7]: > 10 µM; inhibition at 0.5 µM [4]: 30.3%; IC50 [8]: > 10 µM; IC50 [6, 12]: > 10 µM; pIC50 ([3]; cell-free assay): 6.13
-0.924		4.67	> 10	COC(=O)c1ccc2c(c1)nc(NC1CC1)c1nc(SCc3ccccc3Cl)ncc12 [drawing 1611]	
7.49		29.3	> 10	O=C(O)c1ccc2c(c1)nc(NC1CC1)c1nc(SCc3ccccc3Cl)ncc12 [drawing 1614]	
46		4.6		O=C(O)c1ccc2c(c1)nc(NC1CC1)c1nc(Nc3ccccc3)ncc12 [drawing 1618]	IC50 [6, 11]: > 10 µM
